{"source": "patent US20120183631A1", "about": "“INGREDIENT EXTRACTED FROM POUZOLZIA ZEYLANICA (L.) BENN AND ITS ANTI-ACNE FORMULA” (priority 2011, published 2012)", "test_system": "endotoxin", "type": "cell-based", "data": [{"smiles": "COc1cc(/C=C/C(=O)CC(=O)/C=C/c2ccc(O)c(OC)c2)ccc1O", "note": "[Curcumin]", "values": [{"measurement": "Inhibition of endotoxin (in words)", "value": "not restrained"}]}]}
